Assay results taken from patent EP4455142A1, “NOVEL INHIBITOR OF QPCTL AND/OR QC” (Scenic Immunology B.V., priority 2023, dated 2024).

What was measured:
[1] = Microsomal stability, dog (DLM); assay type: in vitro ADME; conditions: liver microsomes; (beagle) dog microsomes, 0.5 mg protein/mL, 1 µM test compound
Description: (§1) In order to assess metabolic stability of test compounds, commercially acquired CD-1 mouse liver microsome preparations were incubated in 100 µL at a final concentration of 0.5 mg protein/mL, 1 µM test compound, 0.99% methanol and 0.01% DMSO, after a 10 minute pre-incubation at 37°C and addition of 0.1 volumes 10 U/mL NADPH in 10 mM MgCl2. Reactions were stopped by addition of 300 µL cold acetonitrile containing internal standards at t = 0, 5, 10, 20, 30, and 60 minutes. Samples were submitted to LC-MS/MS analysis subsequently and the slope of linear regression of time versus In(% Remaining concentration) was derived to calculate t½ as t½= In(2) /(-Slope). Then Clint(mic) and Clint(liver) were calculated as follows: CLint(mk) = (0.693)/(In vitro T1/2) · (1)/(mg/mL microsomal protein in reaction system) [formula] CLint(liver) = CLint(mic) · (mg microsomes)/(g liver) · (g liver)/(kg body weight) [formula]
(§2) The same procedure was performed for human microsomes, SD rat microsomes and (beagle) dog microsomes.
Where 45 mg microsomal protein/g liver and 32 g liver/kg dog bodyweight were used as standardized parameters for […].

[2] = Microsomal stability, human (HLM); assay type: in vitro ADME; conditions: liver microsomes, 0.5 mg protein/mL, 1 µM test compound
Description: as §1, §2
Where 45 mg microsomal protein/g liver and 20 g liver/kg human bodyweight were used as standardized parameters for human microsomes.

recombinant QC enzyme = biological target: T1, recombinant QC enzyme (Homo sapiens, UniProt Q16769); assay: Assay 2 - QC potency, fluorescent enzymatic assay (H-Gln-AMC, coupled pGAPase detection); assay type: biochemical; conditions: 1 hour at 37°C
T1 construct: bacterial expression of residues 33-361 of uniprot ID Q16769, fused to a His tag; His tag (cleaved yes); made in house
Description: After scale-up, expression and lysis, protein was purified by Ni-NTA IMAC, dialysed in the presence of Factor Xa, further purified by Ni-NTA reverse IMAC and finally filtrated for size on a Superdex 200 16/60 column. Final protein was concentrated using a spin concentrator at 10 kDa molecular weight cut-off and formulated in 150 mM NaCl, 50 mM Tris-HCl, 50% Glycerol, pH 8.0.
(§3) Pyroglutamylation was measured by conversion of glutamine-4-amino-7-methylcoumarine (H-Gln-AMC, Bachem) to pyroglutamyl-AMC, which is subsequently a specific substrate for pyroglutamylaminopeptidase (pGAPase, Qiagen), releasing free AMC which can be fluorescently detected. For a typical inhibition assay, 7.5 µL aliquots of threefold dilutions of test compound in 50 mM Tris pH8 buffer were plated in 384-well plates. 15 µL 20 µM h-Gln-AMC (diluted from a 40 mM stock dissolved in 25 mM HEPES using 50 mM Tris-HCl pH 8.0) was added to each well. Finally, 7.5 µL, 3 ng/µL recombinant QC enzyme was added and the reaction mixture was incubated for 1 hour at 37°C. A 5 minute incubation at 98°C was then performed to denature the QC enzyme and stop the reaction.
25 µL of the pyroglutamylation reaction mixture was transferred into an empty plate and to that, 25 µL of the pGAPase enzyme solution was added. Plates were then incubated for 25 minutes at room temperature before fluorescence readings were taken on an Envision2 plate reader with excitation set at 380 nm and emission at 450 nm.
Controls were taken along containing pyroglutamylated-AMC (Bachem, dissolved at 10 mM in DMSO) instead of H-Gln-AMC to control for pGAPase inhibition.
(§4) IC50 values are calculated using non-linear regression analysis with GraphPad Prism software.

human isoQC = biological target: T2, human isoQC (Homo sapiens, UniProt Q9NXS2); assay: Assay 1 - isoQC potency, fluorescent enzymatic assay (H-Gln-AMC, coupled pGAPase detection); assay type: biochemical; conditions: recombinant isoQC, 1 hour at 37°C
T2 construct: The Golgi luminal, enzymatically active region of human isoQC (S53-L382; see, e.g., Huang et al., 2011); GST (with enterokinase site) (N, cleaved yes); made in house; host or cells: E. coli
Excerpt: The Golgi luminal, enzymatically active region of human isoQC (S53-L382; see, e.g., Huang et al., 2011) was obtained by expression in E. coli of an N-terminally GST Enterokinase and C-terminally 6xHis tagged construct in the pET41(+) vector and subsequent purification using Ni-NTA IMAC. Enterokinase digestion ensued, followed by another Ni-NTA IMAC purification, Superdex75 based size exclusion and finally a spin concentration using a 10 kDa molecular weight cutoff. The final protein is formulated in 50 mM Tris-HCl, 150 mM NaCl, 50% Glycerol, pH 7.8.
as §3, with “in 50mM” for “in 50 mM”, “µM hGln-AMC” for “µM h-Gln-AMC”, “Tris-HCl 25” for “Tris-HCl”, “recombinant isoQC” for “recombinant QC”, “the isoQC” for “the QC”
To detect the amount of pyroglutamyl-AMC formed, a 0.125 U/mL pGAPase enzyme diluted in 50 mM Tris-HCl pH 8.0 containing 10 mM dithiothreitol (DTT) solution was prepared. 25 µL of the pyroglutamylation reaction mixture was transferred into an empty plate and to that, 25 µL of the pGAPase enzyme solution was added. Plates were then incubated for 25 minutes at room temperature before fluorescence readings were taken on an Envision2 plate reader with excitation set at 380 nm and emission at 450 nm. DMSO concentrations during the assay never exceeded 1% and activities were compared to controls containing only the same amount of DMSO and no test compound. Controls were taken along containing pyroglutamylated-AMC (Bachem, dissolved at 10 mM in DMSO) instead of H-Gln-AMC to control for pGAPase inhibition.
as §4

[3] = Microsomal stability, rat (RLM); assay type: in vitro ADME; conditions: liver microsomes; SD rat microsomes, 0.5 mg protein/mL, 1 µM test compound
Description: as §1, §2
Where 45 mg microsomal protein/g liver and 40 g liver/kg rat bodyweight were used as standardized parameters for rat microsomes.

[4] = Low dose pharmacokinetics; assay type: in vivo; conditions: mouse, plasma, iv, 1 mg/kg; C57BI/6 mice, intravenously, 1 mg per kg bodyweight
Description: In order to determine the stability of test compounds in plasma, low-dose pharmacokinetic experiments were carried out in C57BI/6 mice. Test compounds were dissolved at 0.1 mg/mL in an appropriate vehicle and dosed intravenously at 1 mg per kg bodyweight in three animals per compound. At various (between 5 and 9) timepoints after injection, up to 24 hours, blood samples were drawn, plasma isolated and test compound concentrations were determined using LC-MS/MS. t½ values were subsequently calculated using Phoenix WinNonlin 6.3 software and averaged over the three mice per test compound.

T2 sequence (Q9NXS2 53-382): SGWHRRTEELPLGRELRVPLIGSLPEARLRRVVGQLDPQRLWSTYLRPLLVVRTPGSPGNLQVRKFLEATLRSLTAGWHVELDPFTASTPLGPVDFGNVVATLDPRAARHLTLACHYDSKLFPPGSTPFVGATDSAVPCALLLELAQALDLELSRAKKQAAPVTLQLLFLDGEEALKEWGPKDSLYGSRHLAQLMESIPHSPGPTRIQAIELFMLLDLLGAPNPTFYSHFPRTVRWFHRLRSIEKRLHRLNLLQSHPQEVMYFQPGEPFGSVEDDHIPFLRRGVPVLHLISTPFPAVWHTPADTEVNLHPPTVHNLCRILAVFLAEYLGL
T1 sequence (Q16769 33-361): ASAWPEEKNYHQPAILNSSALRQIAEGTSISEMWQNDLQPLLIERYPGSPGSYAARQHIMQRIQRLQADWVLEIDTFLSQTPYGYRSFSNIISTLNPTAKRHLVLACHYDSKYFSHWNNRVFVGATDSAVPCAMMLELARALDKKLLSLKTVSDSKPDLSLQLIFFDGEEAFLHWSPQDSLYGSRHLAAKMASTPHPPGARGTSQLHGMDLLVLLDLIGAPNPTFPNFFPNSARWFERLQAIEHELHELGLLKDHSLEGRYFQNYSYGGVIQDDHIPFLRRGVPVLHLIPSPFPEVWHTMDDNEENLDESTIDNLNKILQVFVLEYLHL

Q: With `O=C1OCC(c2ccc(N3CCCC3)cc2)N1c1ccc2[nH]cnc2c1` (single isomer, unassigned) [(18)-ent2] as the compound, how does the CLint scaled at 1 µM [1] read?
A: 32.8 mL/min/kg

Q: And the CLint scaled at 1 µM [2]?
A: 73.8 mL/min/kg

Q: What about the IC50 (recombinant QC enzyme) of the same compound?
A: 31.2 nM

Q: What about the IC50 (human isoQC) of the same compound?
A: 23.9 nM

Q: What about the CLint scaled at 1 µM [3] of the same compound?
A: 1070 mL/min/kg

Q: Which results are given for `O=C1OCC(c2ccc(C3CCC(F)(F)CC3)cc2)N1c1ccc2[nH]cnc2c1` (single isomer, unassigned) [(19)-ent2]?
A: CLint scaled at 1 µM [1]: 21.8 mL/min/kg; CLint scaled at 1 µM [2]: 19.7 mL/min/kg; IC50 (human isoQC): 35.8 nM; CLint scaled at 1 µM [3]: 49.9 mL/min/kg

Q: With `O=C1OC[C@H](c2ccc(-c3cnn(C(F)(F)F)c3)cc2F)N1c1ccc2[nH]cnc2c1` [Compound (1)] as the compound, how does the CLint scaled at 1 µM [2] read?
A: < 8.6 mL/min/kg

Q: What about the IC50 (recombinant QC enzyme) of the same compound?
A: 10.3 nM

Q: What about the half-life [4] of the same compound?
A: 3.99 to 4.58 h

Q: What about the IC50 (human isoQC) of the same compound?
A: 1.7 nM
